Laboratory results published in patent US10137101B2, “Alkylamido compounds and uses thereof” (Nogra Pharma Limited, priority 2009, dated 2018).

Tests used:
Colitis in C57bI6 mice = test: Anti-murine colitis model (TNBS); type: in vivo
Protocol: Colitis in C57bI6 mice is induced by administering TNBS (150 mg/kg) by oral gavage on day −3. Stool samples were taken 8 hours after administration. At day 0-5, N-acetylated E2 (30 mM) was administrated by oral gavage. On day 5, mice were analyzed to obtain a mortality macroscopic score (Wallace, Gastroenterology 96: 29-36, 1989).

[1] = test system: human primary keratinocytes; test: MTT test on human primary keratinocytes; type: cell-based; settings: 0.1-1-2 mM, 24 and 48 h; FIG. 5
Protocol: To assess the possible toxic or cytostatic effect of the substances under study, a spectrophotometric test (MTT) was carried out. The human primary keratinocytes, isolated from skin biopsies, were plated in wells of a 24-well plate in suitable medium with addition of antibiotics, calcium, and specific growth factors. At around 70% confluence, the cells were exposed to the presence of Compound A, at various concentrations (0.1-1-2 mM), for 24 and 48 h in suitable medium with addition of antibiotics, calcium, but no growth factors. This culture condition was done for all the subsequent experiments. At the end of the treatment, the MTT test was done.

TNF-alpha = test: Inhibition of TNF-alpha mRNA induction by H2O2 in keratinocytes (Real time RT-PCR); type: cell-based, human; settings: H2O2 300 μM, 6 h, FIG. 6
Protocol: Analysis of the inhibition of compound A of the mRNA induction of the proinflammatory cytokine TNF-alpha by H2O2 was carried out by Real time RT-PCR. The keratinocytes were plated in dishes of 6 cm/Ø. At 80% confluence, the cells were treated with H2O2 (300 μM) in presence of Compound A at the three concentrations (0.01-0.1-0.5 mM) for 6 h. At the end of the treatment, the cells were lysed in a lysis buffer and subjected to isolation and subsequent retrotranscription of the RNA. […] (FIG. 6)

IL-6 [2] = test: Inhibition of IL-6 mRNA induction by IFN-γ in keratinocytes (Real time RT-PCR); type: cell-based, human; settings: IFN-γ 30 ng/ml, 6 h; 0.01-0.1-0.5 mM; FIG. 7
Protocol: Analysis of the inhibition by compound A of the mRNA induction of the proinflammatory cytokine IL-6 by IFN-γ was done through Real time RT-PCR. The keratinocytes were plated in dishes of 6 cm/Ø.
At 80% confluence, the cells were treated with IFN-γ (30 ng/ml) in presence of compound A (N-Acetylged) at the three concentrations (0.01-0.1-0.5 mM) for 6 h.

IL-6 [3] = test: Inhibition of IL-6 protein induction by LPS in keratinocytes (ELISA); type: cell-based, human; settings: LPS 10 μg/ml, 24 h; 0.01-0.1-0.5 mM; FIG. 9
Protocol: Analysis of the inhibition by Compound A of the protein induction of IL-6 by LPS (lipopolysaccharide) was done with the ELISA kit. The keratinocytes were plated in wells of a 24-well plate. At 80% confluence, the cells were treated with LPS (10 μg/ml) in presence of compound A at the three concentrations (0.01-0.1-0.5 mM) for 24 h. At the end of the treatment, the supernatant was decanted, centrifuged so as to remove any cell detritus, and kept at −80° C. until the time of the analysis. The quantity of IL-6 present in the supernatant was normalized by the protein concentration of the sample itself.

sebocytes [4] = test: MTT test on human sebocytes; type: cell-based; settings: 0.1-0.5-1-2 mM, 24 and 48 h; FIG. 10
Protocol: To assess the possible toxic or cytostatic effect of the substances under study, a spectrophotometric test (MTT) was carried out. The sebocytes were plated in wells of a 24-well plate in suitable medium with addition of antibiotics, calcium and EGF. At roughly 70% confluence, the cells were exposed to the presence of compound A, in various concentrations (0.1-0.5-1-2 mM), for 24 and 48 h. At the end of the treatment, the MTT test was performed. […] (FIG. 10)

sebocytes [5] = test: Sebogenesis induced by linoleic acid and testosterone, Nile Red Assay; type: cell-based, human; settings: LA 10^-4M, TST 20 nM, compound 1 mM
Protocol: Analysis of the inhibition by (compound A) of sebogenesis induced by treatment with linoleic acid (LA) and with testosterone (TST) was evaluated by spectrofluorimetry, using Nile Red as selective marker of intracellular lipids (Nile Red Assay). The sebocytes were plated in wells of a 24-well plate. Next day, they were deprived of serum (2%) and after 24 h they were stimulated, for another 24 h, with LA (10^-4M), TST (20 nM) in presence or in absence of A (1 mM). At the end of the treatment, the sebocytes were stained with Nile Red. The quantitative analysis was done by spectrofluorimetry, which made it possible to distinguish between neutral lipids and polar lipids based on the different wavelength of excitation and emission. […] (FIG. 11).
Analysis of the inhibition by compound A of sebogenesis induced by treatment with linoleic acid (LA) and with testosterone (TST) was evaluated by spectrofluorimetry, using Nile Red as selective marker of intracellular lipids (Nile Red Assay). The sebocytes were plated in wells of a 24-well plate. […] The quantitative analysis was done by spectrofluorimetry, which made it possible to distinguish between neutral lipids and polar lipids based on the different wavelength of excitation and emission.

sebocytes [6] = test: Sebogenesis induced by LA and TST, fatty acids and squalene by GC-MS; type: cell-based, human; settings: compound 1 mM
Protocol: In order to evaluate in greater detail the inhibition by Compound A of sebogenesis induced by LA and TST, assays were performed on the lipid extract of the sebocytes using gas chromatography coupled with mass spectrometry (GC-MS). The sebocytes were treated by the scheme described for the Nile Red assay. At the end of the treatment, the cells were removed and then the lipid extraction was done by using organic solvents. One part of the extract was used to analyze the fatty acid composition, while the other part was used for the determination of the quantity of squalene, a lipid characteristic of sebum. […] (FIG. 12B)

With `CO[C@H](Cc1ccc(NC(C)=O)cc1)C(=O)O` [Compound A, N-acetyl-(R)-(−)-3-(4-aminophenyl)-2-methoxypropionic acid] the “% mortality” value (Colitis in C57bI6 mice; TNBS 150 mg/kg oral gavage day -3, N-acetylated E2 30 mM oral gavage day 0-5, versus TNBS alone, FIG. 1) was “comparable”, the “MPO (myleoperoxidase) activity” value (Colitis in C57bI6 mice; TNBS + N-acetyl E2 30 mM oral gavage versus TNBS alone, FIG. 3) was “decreased” and the “colonic inflammation (Ameho score)” value (Colitis in C57bI6 mice; TNBS + N-acetyl E2 30 mM oral gavage versus TNBS alone, FIG. 4) was “colonic inflammation had decreased”. The “level of colonic lesions (Wallace macroscopic score)” value (Colitis in C57bI6 mice; TNBS + N-acetyl E2 30 mM oral gavage versus TNBS alone, day 5, FIG. 2) was “significantly less”, the “cellular vitality (MTT)” value [1] was “did not show any effect on cellular vitality” and the “inhibition of expression of mRNA of TNF-α induced by H2O2, higher dose” value (TNF-alpha; higher dose (0.5 mM), effect similar to troglitazone) was “complete inhibition”. For the same compound, the “inhibition of expression of mRNA of TNF-α induced by H2O2” value (TNF-alpha; two higher doses (0.1 mM; 0.5 mM)) was “able to inhibit”, the “inhibition of mRNA expression of IL-6 induced by IFN-γ” value (IL-6 [2]) was “inhibit the expression of the inflammatory cytokine induced by presence of IFN-γ which does not appear to be dose-dependent” and the “inhibition of protein expression of IL-6 induced by LPS” value (IL-6 [3]) was “inhibit, in dose-dependent manner”. For the same compound, the “cell vitality (MTT)” value (sebocytes [4]) was “no effects on cell vitality”, the “inhibition of sebogenesis (intracellular lipids, Nile Red)” value (sebocytes [5]; 24 h, FIG. 11, FIG. 13) was “able to reduce the lipidogenic stimulus” and the “influence of times of treatment on inhibition of sebogenesis (Nile Red)” value (sebocytes [5]; FIG. 13) was “No differences were observed”. For the same compound, the “fatty acid assay of lipid extract (lipidogenic stimulus)” value (sebocytes [6]; FIG. 12A) was “reduced” and the “squalene analysis of lipid extract” value (sebocytes [6]; FIG. 12B) was “confirmed”.
